# According to ChEMBL document CHEMBL1157712, “Hit to lead account of the discovery of bisbenzamide and related ureidobenzamide inhibitors of Rho kinase” (J Med Chem, 2010):
# What was measured:
# [1] = target: T1, Rho-associated protein kinase 2 (Homo sapiens, UniProt O75116)
# Description: (§1) Inhibition of human ROCK2 by homogenous luciferase assay
# [2] = target: T1, Rho-associated protein kinase 2; assay: Inhibition of human ROCK2 by IMAP assay
# [3] = target: T1, Rho-associated protein kinase 2; remark: listed apart in the source
# Description: as §1
# [4] = target: T2, Protein kinase C epsilon type (Homo sapiens, UniProt Q02156); assay: Inhibition of PKCepsilon
# T2 sequence (Q02156 whole entry): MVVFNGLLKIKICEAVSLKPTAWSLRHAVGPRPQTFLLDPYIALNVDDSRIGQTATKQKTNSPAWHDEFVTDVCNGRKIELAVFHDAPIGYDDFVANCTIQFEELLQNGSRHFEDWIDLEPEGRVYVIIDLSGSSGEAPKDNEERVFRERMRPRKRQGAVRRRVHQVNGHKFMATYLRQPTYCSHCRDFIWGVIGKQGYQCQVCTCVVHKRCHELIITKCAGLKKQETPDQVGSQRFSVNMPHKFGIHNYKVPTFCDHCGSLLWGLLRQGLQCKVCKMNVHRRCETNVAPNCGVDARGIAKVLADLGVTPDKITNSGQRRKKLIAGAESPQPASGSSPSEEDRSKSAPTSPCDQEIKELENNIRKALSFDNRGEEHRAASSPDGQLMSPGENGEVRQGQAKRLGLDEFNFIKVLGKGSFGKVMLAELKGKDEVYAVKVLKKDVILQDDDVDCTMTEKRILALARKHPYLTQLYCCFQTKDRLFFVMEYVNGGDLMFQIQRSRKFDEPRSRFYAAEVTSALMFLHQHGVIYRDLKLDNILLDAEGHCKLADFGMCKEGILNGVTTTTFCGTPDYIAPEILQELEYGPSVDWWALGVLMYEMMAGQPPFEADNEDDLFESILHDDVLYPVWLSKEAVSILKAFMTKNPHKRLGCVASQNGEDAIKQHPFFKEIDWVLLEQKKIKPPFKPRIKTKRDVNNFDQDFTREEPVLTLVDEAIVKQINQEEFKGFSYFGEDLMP
# [5] = target: Serine/threonine-protein kinase N2 (Homo sapiens, UniProt Q16513)
# Serine/threonine-protein kinase N2, sequence (Q16513 whole entry): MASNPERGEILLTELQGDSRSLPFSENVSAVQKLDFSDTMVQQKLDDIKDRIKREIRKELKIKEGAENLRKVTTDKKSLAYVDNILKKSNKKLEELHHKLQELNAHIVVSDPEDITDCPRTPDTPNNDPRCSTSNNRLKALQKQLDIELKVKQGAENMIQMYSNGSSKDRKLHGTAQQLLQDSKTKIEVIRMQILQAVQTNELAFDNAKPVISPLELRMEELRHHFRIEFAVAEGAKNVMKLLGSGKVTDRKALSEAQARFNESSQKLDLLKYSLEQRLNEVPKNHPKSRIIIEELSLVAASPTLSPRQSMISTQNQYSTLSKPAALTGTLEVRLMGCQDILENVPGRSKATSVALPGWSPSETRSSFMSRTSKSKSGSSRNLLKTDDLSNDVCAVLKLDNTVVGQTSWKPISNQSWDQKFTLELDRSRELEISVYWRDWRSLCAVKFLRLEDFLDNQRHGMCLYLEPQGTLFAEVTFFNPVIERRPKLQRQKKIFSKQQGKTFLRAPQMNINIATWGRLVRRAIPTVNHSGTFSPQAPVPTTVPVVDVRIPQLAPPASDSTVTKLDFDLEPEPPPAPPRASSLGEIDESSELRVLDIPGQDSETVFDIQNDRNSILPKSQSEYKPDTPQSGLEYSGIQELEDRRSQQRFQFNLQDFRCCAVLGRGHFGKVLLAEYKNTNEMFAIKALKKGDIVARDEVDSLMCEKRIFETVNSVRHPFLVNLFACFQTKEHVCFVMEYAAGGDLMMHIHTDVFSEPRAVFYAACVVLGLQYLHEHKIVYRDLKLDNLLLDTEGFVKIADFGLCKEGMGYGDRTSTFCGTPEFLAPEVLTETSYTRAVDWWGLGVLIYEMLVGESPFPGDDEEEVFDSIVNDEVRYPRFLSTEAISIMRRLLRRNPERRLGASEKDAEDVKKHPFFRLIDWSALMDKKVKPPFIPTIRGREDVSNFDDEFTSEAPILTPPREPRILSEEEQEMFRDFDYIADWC
# [6] = test system: ROCK1 (Homo sapiens); assay: Inhibition of ROCK1
# [7] = target: Serine/threonine-protein kinase MRCK beta (Homo sapiens) (UniProt Q9Y5S2); assay: Inhibition of CDC42BPB
# Serine/threonine-protein kinase MRCK beta (Homo sapiens), sequence (Q9Y5S2 whole entry, looked up): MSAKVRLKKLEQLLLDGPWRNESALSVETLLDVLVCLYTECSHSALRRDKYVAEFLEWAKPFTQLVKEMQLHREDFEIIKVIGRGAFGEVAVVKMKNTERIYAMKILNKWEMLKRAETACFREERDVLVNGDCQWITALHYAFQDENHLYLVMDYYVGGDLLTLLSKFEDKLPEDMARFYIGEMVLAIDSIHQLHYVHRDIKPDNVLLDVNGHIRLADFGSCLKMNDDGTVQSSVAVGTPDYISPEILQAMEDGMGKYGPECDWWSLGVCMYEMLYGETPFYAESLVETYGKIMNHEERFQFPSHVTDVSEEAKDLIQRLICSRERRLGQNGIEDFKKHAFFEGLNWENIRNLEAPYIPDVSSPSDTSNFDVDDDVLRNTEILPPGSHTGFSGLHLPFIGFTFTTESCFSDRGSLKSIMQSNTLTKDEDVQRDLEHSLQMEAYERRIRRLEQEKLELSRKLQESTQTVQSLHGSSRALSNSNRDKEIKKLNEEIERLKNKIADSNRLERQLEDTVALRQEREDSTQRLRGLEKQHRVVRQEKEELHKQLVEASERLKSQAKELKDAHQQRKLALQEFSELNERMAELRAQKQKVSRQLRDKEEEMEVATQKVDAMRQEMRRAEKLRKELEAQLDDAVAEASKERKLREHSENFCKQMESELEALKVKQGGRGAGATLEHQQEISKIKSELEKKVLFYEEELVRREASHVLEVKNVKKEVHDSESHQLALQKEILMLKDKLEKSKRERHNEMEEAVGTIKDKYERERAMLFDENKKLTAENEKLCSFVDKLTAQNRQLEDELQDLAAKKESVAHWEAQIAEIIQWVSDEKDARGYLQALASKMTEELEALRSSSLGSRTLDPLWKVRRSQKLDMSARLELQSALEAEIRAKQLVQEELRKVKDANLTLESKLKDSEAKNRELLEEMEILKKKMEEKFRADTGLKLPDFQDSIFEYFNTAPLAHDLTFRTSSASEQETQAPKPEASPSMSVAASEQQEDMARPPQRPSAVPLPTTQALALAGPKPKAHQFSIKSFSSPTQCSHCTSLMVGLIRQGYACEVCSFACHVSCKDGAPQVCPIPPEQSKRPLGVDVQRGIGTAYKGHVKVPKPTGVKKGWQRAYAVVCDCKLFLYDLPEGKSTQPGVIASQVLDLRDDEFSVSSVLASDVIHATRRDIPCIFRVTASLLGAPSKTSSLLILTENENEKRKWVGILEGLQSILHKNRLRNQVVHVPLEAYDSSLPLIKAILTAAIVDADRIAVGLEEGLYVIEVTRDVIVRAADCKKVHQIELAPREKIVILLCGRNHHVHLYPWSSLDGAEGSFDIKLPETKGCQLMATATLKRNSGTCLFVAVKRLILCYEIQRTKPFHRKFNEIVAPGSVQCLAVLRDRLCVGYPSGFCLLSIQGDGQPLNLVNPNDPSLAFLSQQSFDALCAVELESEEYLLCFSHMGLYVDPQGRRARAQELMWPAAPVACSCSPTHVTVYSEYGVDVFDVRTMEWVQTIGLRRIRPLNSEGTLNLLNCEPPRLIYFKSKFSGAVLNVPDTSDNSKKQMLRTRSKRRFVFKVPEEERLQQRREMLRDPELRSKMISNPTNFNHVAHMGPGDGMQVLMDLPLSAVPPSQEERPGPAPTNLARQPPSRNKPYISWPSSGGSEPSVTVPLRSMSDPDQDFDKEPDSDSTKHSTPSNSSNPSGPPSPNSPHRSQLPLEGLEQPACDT
# [8] = Permeability from apical to basolateral side in human Caco-2 cells; type: ADME, cell-based; details: Caco-2, read-out: permeability
# [9] = Permeability from basolateral to apical side in human Caco-2 cells; type: ADME, cell-based; details: read-out: permeability
# [10] = Metabolic stability in human liver microsomes assessed as half life; type: ADME, Microsome
# [11] = Membrane permeability by PAMPA assay; type: ADME; details: read-out: permeability
# [12] = Solubility at pH 7.4; type: physicochemical; details: buffer
# [13] = target: T3, Cytochrome P450 1A2 (Homo sapiens, UniProt P05177); assay: Inhibition of human CYP1A2 by LCMS/MS assay; type: ADME
# T3 sequence (P05177 whole entry): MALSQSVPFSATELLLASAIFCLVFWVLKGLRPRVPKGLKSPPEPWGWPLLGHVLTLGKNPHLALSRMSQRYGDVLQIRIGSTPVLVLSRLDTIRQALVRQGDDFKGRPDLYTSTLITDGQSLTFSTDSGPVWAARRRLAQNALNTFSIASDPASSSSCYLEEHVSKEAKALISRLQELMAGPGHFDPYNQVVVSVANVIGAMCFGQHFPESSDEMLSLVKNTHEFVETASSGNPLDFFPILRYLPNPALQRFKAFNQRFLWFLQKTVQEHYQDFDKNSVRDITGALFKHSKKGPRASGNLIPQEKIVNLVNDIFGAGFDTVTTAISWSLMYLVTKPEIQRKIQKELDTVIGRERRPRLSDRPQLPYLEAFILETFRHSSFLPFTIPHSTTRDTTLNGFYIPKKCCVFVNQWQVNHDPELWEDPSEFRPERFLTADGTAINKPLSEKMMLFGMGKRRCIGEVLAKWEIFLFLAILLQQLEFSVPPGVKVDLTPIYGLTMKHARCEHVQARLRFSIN
# [14] = target: Cytochrome P450 2C9 (Homo sapiens, UniProt P11712); assay: Inhibition of human CYP2C9 by LCMS/MS assay; type: ADME
# [15] = target: Cytochrome P450 2D6 (Homo sapiens, UniProt P10635); assay: Inhibition of human CYP2D6 by LCMS/MS assay; type: ADME
# Cytochrome P450 2D6, sequence (P10635 whole entry): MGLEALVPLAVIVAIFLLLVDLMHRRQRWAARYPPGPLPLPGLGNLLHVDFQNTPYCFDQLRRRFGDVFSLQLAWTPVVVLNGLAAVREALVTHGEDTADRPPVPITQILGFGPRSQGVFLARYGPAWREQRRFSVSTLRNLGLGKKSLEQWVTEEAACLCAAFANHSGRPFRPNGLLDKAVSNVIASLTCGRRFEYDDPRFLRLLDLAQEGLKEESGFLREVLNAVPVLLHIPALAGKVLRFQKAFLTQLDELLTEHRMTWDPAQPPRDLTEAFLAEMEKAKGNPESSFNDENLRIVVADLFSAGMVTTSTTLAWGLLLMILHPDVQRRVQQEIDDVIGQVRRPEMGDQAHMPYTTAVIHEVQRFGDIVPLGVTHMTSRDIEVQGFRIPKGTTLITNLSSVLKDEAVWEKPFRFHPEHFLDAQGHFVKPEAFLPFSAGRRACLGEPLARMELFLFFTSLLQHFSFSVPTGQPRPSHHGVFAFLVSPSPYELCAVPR
# [16] = target: Cytochrome P450 3A4 (Homo sapiens, UniProt P08684); assay: Inhibition of human CYP3A4 by LCMS/MS assay; type: ADME
# Cytochrome P450 3A4, sequence (P08684 whole entry): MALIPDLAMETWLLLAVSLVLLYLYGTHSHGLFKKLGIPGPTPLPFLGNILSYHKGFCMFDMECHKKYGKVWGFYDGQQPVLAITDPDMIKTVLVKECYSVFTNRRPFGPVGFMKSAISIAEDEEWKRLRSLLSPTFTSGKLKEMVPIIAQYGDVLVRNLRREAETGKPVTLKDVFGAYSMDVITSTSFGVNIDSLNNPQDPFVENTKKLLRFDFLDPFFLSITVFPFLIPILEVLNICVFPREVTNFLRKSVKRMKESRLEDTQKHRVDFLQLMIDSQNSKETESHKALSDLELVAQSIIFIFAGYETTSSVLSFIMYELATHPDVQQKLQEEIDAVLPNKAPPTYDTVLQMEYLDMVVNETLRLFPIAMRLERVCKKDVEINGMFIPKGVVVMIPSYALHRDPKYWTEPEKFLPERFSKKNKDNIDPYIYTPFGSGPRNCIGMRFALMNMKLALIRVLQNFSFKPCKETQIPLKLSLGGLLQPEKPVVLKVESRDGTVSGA
# [17] = organism: Rattus norvegicus; assay: Induction of relaxation activity of phenylephrine-induced Sprague-Dawley rat aortic ring contraction; type: functional; details: Aorta
# T1 sequence (O75116 whole entry): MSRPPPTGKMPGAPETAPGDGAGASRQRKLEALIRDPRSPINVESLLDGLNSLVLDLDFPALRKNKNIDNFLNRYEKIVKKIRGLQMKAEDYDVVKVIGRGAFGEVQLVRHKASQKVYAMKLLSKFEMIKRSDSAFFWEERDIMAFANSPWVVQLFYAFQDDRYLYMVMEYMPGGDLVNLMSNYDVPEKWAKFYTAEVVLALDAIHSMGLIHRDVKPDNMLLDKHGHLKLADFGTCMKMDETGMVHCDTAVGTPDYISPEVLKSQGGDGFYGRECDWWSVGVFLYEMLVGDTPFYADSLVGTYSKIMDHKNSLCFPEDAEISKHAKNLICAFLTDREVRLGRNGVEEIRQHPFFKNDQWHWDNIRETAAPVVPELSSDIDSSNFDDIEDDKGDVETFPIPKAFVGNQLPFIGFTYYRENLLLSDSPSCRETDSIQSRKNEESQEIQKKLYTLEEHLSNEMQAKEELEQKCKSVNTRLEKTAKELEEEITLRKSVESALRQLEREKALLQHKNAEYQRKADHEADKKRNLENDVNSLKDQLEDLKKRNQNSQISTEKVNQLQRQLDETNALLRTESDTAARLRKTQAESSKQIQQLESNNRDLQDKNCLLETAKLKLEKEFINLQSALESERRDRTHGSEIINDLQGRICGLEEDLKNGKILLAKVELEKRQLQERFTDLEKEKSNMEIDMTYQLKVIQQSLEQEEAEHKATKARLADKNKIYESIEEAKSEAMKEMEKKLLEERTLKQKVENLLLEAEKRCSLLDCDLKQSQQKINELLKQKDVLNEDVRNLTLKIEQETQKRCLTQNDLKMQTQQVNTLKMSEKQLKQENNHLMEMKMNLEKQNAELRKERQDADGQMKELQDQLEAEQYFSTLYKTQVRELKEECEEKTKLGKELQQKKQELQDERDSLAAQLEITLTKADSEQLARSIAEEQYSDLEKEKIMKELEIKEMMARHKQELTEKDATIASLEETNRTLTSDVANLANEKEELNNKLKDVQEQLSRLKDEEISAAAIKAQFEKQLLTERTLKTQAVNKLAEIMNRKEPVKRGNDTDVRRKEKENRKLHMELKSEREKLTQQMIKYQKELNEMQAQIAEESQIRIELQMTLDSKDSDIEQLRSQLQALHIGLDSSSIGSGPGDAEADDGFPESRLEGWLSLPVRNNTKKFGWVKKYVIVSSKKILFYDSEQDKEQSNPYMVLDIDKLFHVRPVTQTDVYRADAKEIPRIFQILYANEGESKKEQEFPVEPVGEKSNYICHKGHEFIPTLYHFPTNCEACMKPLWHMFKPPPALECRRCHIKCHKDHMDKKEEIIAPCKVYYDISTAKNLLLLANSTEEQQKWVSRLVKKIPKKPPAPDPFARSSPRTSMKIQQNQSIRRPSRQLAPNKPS
Compound,IC50 [1] [µM],IC50 [2] [µM],IC50 [3] [µM],also measured
COc1ccc(NC(=O)NCc2cccc(C(=O)NCCC3CCCNC3)c2)cc1OC (configuration not stated),1600,–,–,–
CCCNC(=O)c1cccc(CNC(=O)c2ccc(OC)c(OC)c2)c1,–,–,5,–
COc1ccc(C(=O)NCc2cccc(C(=O)Nc3ccc(CN(C)C)cc3)c2)cc1,–,> 6.5,–,–
N#Cc1cccc(NC(=O)NCc2cccc(C(=O)NCC3CCCO3)c2)c1 (racemic),–,–,3.5,–
COc1ccc(C(=O)NCc2cccc(NC(=O)CCC3CCCNC3)c2)cc1OC (configuration not stated),–,–,0.073,IC50 [4]: > 5 µM; IC50 [5]: > 5 µM; IC50 [6]: 0.19 µM; IC50 [7]: > 5 µM
N#Cc1cccc(NC(=O)NCc2cccc(C(=O)NCCc3ccncc3)c2)c1,–,–,5.5,–
COc1ccc(C(=O)NCc2cccc(C(=O)Nc3ccc(CO)cc3)c2)cc1OC,–,–,0.87,Papp A→B [8]: 0.6 ×10⁻⁶ cm/s; Papp B→A [9]: 16.1 ×10⁻⁶ cm/s; half-life [10]: 41 min; Papp [11]: 10 ×10⁻⁶ cm/s; solubility [12]: 48 µg/mL; IC50 [13]: > 30 µM; IC50 [14]: > 30 µM; IC50 [15]: > 30 µM; IC50 [16]: > 30 µM
N#Cc1ccc(NC(=O)NCc2cccc(NC(=O)CCC3CCCNC3)c2)cc1 (configuration not stated),110,–,–,–
COc1ccc(C(=O)NCc2cccc(C(=O)Nc3ccc4c(c3)CCNC4)c2)cc1OC,100,0.32,–,–
O=S(=O)(c1cccc2cnccc12)N1CCCNCC1 [FASUDIL],–,–,–,IC50 [17]: 6.1 µM
N#Cc1cccc(NC(=O)NCc2cccc(C(=O)NCCC3CCCNC3)c2)c1 (configuration not stated),–,–,0.089,IC50 [4]: > 5 µM; IC50 [5]: > 5 µM; IC50 [7]: > 5 µM
COc1ccc(C(=O)NCc2cccc(C(=O)NCCc3ccncc3)c2)cc1,–,–,> 7000,–
COc1cccc(C(=O)NCc2cccc(C(=O)NCCc3ccncc3)c2)c1,–,–,> 7000,–
CN(C)Cc1ccc(NC(=O)c2cccc(CNC(=O)Nc3ccc(C#N)c(Cl)c3)c2)cc1,10,0.045,–,–

# Continued, in another order:
IC50 [1] [µM],IC50 [2] [µM],IC50 [3] [µM],Compound,also measured
–,> 7,> 7,COc1cccc(C(=O)NCc2cccc(C(=O)Nc3ccc(CN(C)C)cc3)c2)c1,–
70,0.21,–,N#Cc1ccc(NC(=O)NCc2cccc(C(=O)Nc3ccc(CN)cc3)c2)cc1,–
102,–,–,COc1ccc(C(=O)NCc2cccc(C(=O)NCCC3CCCN(C)C3)c2)cc1OC (configuration not stated),–
74,0.18,–,CN(C)Cc1ccc(NC(=O)c2cccc(CNC(=O)Nc3ccc(C(N)=O)c(Cl)c3)c2)cc1,–
240,0.29,–,CN(C)Cc1ccc(NC(=O)c2cccc(CNC(=O)Nc3cccc(C(N)=O)c3)c2)cc1,–
–,0.16,0.065,CN(C)Cc1ccc(NC(=O)c2cccc(CNC(=O)Nc3ccc(C#N)cc3)c2)cc1,IC50 [4]: > 5 µM; IC50 [5]: > 5 µM; IC50 [7]: > 5 µM
–,–,> 7000,Cc1ccc(C(=O)NCc2cccc(C(=O)NCCc3ccncc3)c2)cc1C,–
